Source: publication PMC6934184, “Selective DNA-PKcs inhibition extends the therapeutic index of localized radiotherapy and chemotherapy” (The Journal of Clinical Investigation, 2019)

Molecular target: T1, CDK2/cyclin O (Homo sapiens, UniProt P24941)
T1 construct: purchased Thermo Fisher Scientific (Life Technologies) SelectScreen
Assay: SelectScreen LanthaScreen
Assay type: binding
Details: 1 µM
Method: The in vitro kinase selectivity of NU5455 was determined using the SelectScreen Broad Assay Panel (Thermo Fisher Scientific) involving activity and binding assays (Supplemental Table 1). […] Class IA PI3Ks were measured using the p85α subunit.
Kinase [ATP] % Assay Kinase [ATP] % Assay Kinase [ATP] % Assay Kinase [ATP] % Assay
DNA-PK Km app 98.3 Z LATS2 n/a 4.7 L KIT D820E n/a 1.3 L GSK3B (GSK3 beta) Km app -2.5 Z
PIK3C3 (hVPS34) Km app 85.9 A PRKCZ (PKC zeta) Km app 4.7 Z GRK1 n/a 1.3 L BMPR2 n/a -2.5 L
PIK3C2B (PI3K-C2 beta) 10 28.9 A FGFR1 Km app 4.7 Z BRSK2 n/a 1.2 L CDC42 BPB (MRCKB) Km app -2.5 Z
SNF1LK2 Km app 26.6 Z MINK1 Km app 4.6 Z NUAK1 (ARK5) Km app 1.2 A AMPK (A2/B2/G2) n/a -2.6 L
HCK Km app 18.0 Z CSF1R (FMS) Km app 4.3 Z CDK9/cyclin K n/a 1.0 L PRKG1 Km app -2.7 Z
NEK2 Km app 17.8 Z CSNK1G3 (CK1 gamma 3) Km app 4.2 Z NUAK2 n/a 1.0 L KIT T670E n/a -2.8 L
ALK Km app 17.3 Z STK32C (YANK3) n/a 4.2 L CDK2/cyclin O n/a 0.9 L ERBB4 (HER4) Km app -2.8 Z
FGFR3 K650M n/a 16.5 L STK22D (TSSK1) Km app 4.2 Z CAMKK2 (CaMKK beta) n/a 0.9 L PLK4 n/a -2.8 L
SIK3 n/a 16.1 L TAOK3 (JIK) n/a 4.2 L FGFR3 Km app 0.9 Z GRK7 Km app -3.0 Z
LYN A Km app 15.2 Z RPS6KA4 (MSK2) Km app 4.2 Z ULK2 n/a 0.9 L MAPKAPK2 Km app -3.1 Z
BMPR1B (ALK6) n/a 14.5 L PTK2B (FAK2) Km app 4.2 Z KIT D816V n/a 0.9 L FGFR4 Km app -3.1 Z
INSRR (IRR) Km app 14.1 Z CLK2 Km app 4.1 Z CAMK1 (CaMK1) 10 0.8 A CASK n/a -3.1 L
PLK2 Km app 14.1 Z STK24 (MST3) Km app 4.1 Z PTK6 (Brk) Km app 0.7 Z GRK5 Km app -3.2 Z
PRKACA (PKA) Km app 14.0 Z CAMK1D (CaMKI delta) Km app 4.1 Z CAMK2B (CaMKII beta) Km app 0.7 Z EGFR (ErbB1) T790M Km app -3.3 Z
EIF2AK2 (PKR) n/a 13.3 L INSR Km app 4.1 Z ACVR1 (ALK2) n/a 0.7 L PAK4 Km app -3.3 Z
PRKX Km app 12.5 Z IRAK1 Km app 4.0 A ABL1 H396P n/a 0.6 L DAPK3 (ZIPK) Km app -3.4 Z
FGR Km app 12.1 Z SRC N1 Km app 3.9 Z MERTK (cMER) A708S n/a 0.6 L RET M918T n/a -3.5 L
CLK1 Km app 11.7 Z SRPK2 Km app 3.9 Z MAPKAPK5 (PRAK) Km app 0.6 Z PRKCQ (PKC theta) Km app -3.7 Z
MARK3 Km app 11.4 Z RPS6KA6 (RSK4) Km app 3.8 Z AKT1 (PKB alpha) Km app 0.5 Z CAMKK1 (CAMKKA) n/a -3.8 L
PDGFRB (PDGFR beta) Km app 11.0 Z GRK6 Km app 3.7 Z NTRK3 (TRKC) Km app 0.4 Z FLT3 D835Y Km app -3.9 Z
PRKCN (PKD3) Km app 10.7 Z PKN1 (PRK1) Km app 3.6 Z ZAP70 Km app 0.3 Z ROCK2 Km app -4.1 Z
STK16 (PKL12) n/a 10.5 L MAP3K8 (COT) 100 3.5 Z CSNK1A1 (CK1 alpha 1) Km app 0.3 Z CHUK (IKK alpha) Km app -4.2 A
FES (FPS) Km app 10.4 Z FLT4 (VEGFR3) Km app 3.5 Z MYLK (MLCK) n/a 0.2 L AXL Km app -4.2 Z
ABL1 Km app 10.4 Z GRK4 Km app 3.5 Z MKNK2 (MNK2) n/a 0.2 L PIM2 Km app -4.3 Z
MUSK Km app 10.3 Z FRK (PTK5) Km app 3.4 Z AMPK (A1/B1/G3) n/a 0.2 L PAK1 Km app -4.4 Z
MAPK1 (ERK2) Km app 10.1 Z FYN A n/a 3.3 L MAP3K2 (MEKK2) n/a 0.1 L BMPR1A (ALK3) n/a -4.4 L
BRAF 100 9.9 Z CDK1/cyclin A2 n/a 3.3 L CDK8/cyclin C n/a 0.1 L STK4 (MST1) Km app -4.4 Z
IGF1R Km app 9.7 Z KIT V559D T670I n/a 3.1 L MARK2 Km app 0.1 Z PRKCH (PKC eta) Km app -4.6 Z
MAPK14 (p38 alpha) Km app 9.7 Z SPHK2 10 3.1 A ICK n/a 0.0 L SGKL (SGK3) Km app -4.6 Z
LCK Km app 9.6 Z FGFR3 G697C n/a 3.1 L FGFR2 Km app 0.0 Z PI4KB (PI4K beta) Km app -4.7 A
MAPK11 (p38 beta) Km app 9.5 Z RIPK2 n/a 3.1 L AKT2 (PKB beta) Km app 0.0 Z PRKCE (PKC epsilon) Km app -4.9 Z
SRC Km app 9.5 Z PAK6 Km app 3.0 Z EPHB2 Km app -0.1 Z PHKG1 Km app -5.0 Z
CHEK1 (CHK1) Km app 9.3 Z LYN B Km app 3.0 Z TGFBR2 n/a -0.1 L PDGFRA D842V Km app -5.0 Z
CAMK2D (CaMKII delta) Km app 9.3 Z DAPK2 n/a 2.9 L TEK (Tie2) Km app -0.1 Z PRKG2 (PKG2) Km app -5.1 Z
PLK1 Km app 9.2 Z EPHA4 Km app 2.9 Z AURKA (Aurora A) Km app -0.1 Z TYRO3 (RSE) Km app -5.1 Z
RET Y791F Km app 9.2 Z PIK3CG (p110 gamma) Km app 2.9 A KIT D816H n/a -0.2 L TAOK2 (TAO1) Km app -5.1 Z
FLT3 Km app 9.1 Z HIPK1 (Myak) Km app 2.8 Z KIT N822K n/a -0.2 L EPHB4 Km app -5.3 Z
MAPK10 (JNK3) 100 9.0 Z ADRBK2 (GRK3) Km app 2.8 Z PRKACG (PRKAC gamma) n/a -0.2 L AURKC (Aurora C) Km app -5.4 Z
CSNK2A2 (CK2 alpha 2) Km app 8.7 Z STK17B (DRAK2) n/a 2.7 L TEK (TIE2) Y1108F n/a -0.3 L JAK1 Km app -5.7 Z […]

## CN(C(=O)CN1CCOCC1)c1ccc2sc3c(-c4cccc5c(=O)cc(N6CC7CCC(C6)O7)oc45)cccc3c2c1 [NU5455]
  % displacement: 0.9%
